Earlier results, collected in US7666442B2 (Tracie Martyn International, LLC, priority 2004, dated 2010).
Each block holds one compound with its values, some of them ahead of it.

How the values were obtained:
[1] = using only natural ingredients (botanicals, antioxidants, coffe oil and microfine zinc oxide)
[2] = orally at dosages above 500 mg/kg body weight in animal studies

Water solubility: water-soluble
SMILES: Cc1ncc(CO)c(CN)c1O [Pyridoxamine, 4-aminomethyl-5-hydroxy-6-methyl-3-pyridinemethanol]

SMILES: COc1ccc(C=CC(=O)OCCC(C)C)cc1 [isoamyl-p-methoxycinnamate]
spf [1]: greater than 30

SMILES: NCCC(=O)N[C@@H](Cc1cnc[nH]1)C(=O)O [Carnosine, beta-alanyl-L-histidine]
Safety after oral administration [2]: safe
